According to patent EP0481802A1, “Hydroxylated inhibitors of HIV reverse transcriptase” (MERCK & CO. INC., priority 1990, dated 1992):
pIC50: −log10 of the molar value.

Target: T1, recombinant HIV reverse transcriptase (HIV RTR) (Human immunodeficiency virus type 1 group M subtype B, UniProt P04585)
T1 construct: recombinant HIV reverse transcriptase (HIV RTR)
Test: Reverse Transcriptase Assay
Type: biochemical
Details: incorporation of [³H] dGMP into acid-precipitable cDNA, dGTP and poly r(C)·oligo d(G)12-18 at Km, 37°C for 45 minutes; read-out: IC₅₀
Description: The assay measures the incorporation of tritiated deoxyguanosine monophosphate by recombinant HIV reverse transcriptase (HIV RTR) (or other RT) into acid-precipitable cDNA at the Km values of dGTP and poly r(C)·oligo d(G)₁₂₋₁₈.
Thirty uL of a reaction mixture containing equal volumes of: 500 mM Tris·HCl (pH 8.2), 300 mM MgCl₂, 1200 mM KCl, 10 mM DTT, 400 µg/mL poly r(c)·oligo d(G) [prepared by dissolving 1.5 mg (25 U) poly r(C)·oligo d(G) in 1.5 ml sterile distilled H₂O and diluting to 400 µg/ml], 0.1 µCi/µl [³H] dGTP, 160 µM dGTP, was added to 10 µl sterile distilled H₂O, 2.5 µl of potential inhibitor and 10 µL of 5 nM purified HIV RTR in tubes. The mixture was incubated at 37°C for 45 minutes.
After incubation is complete, the tubes were cooled in ice for 5 minutes. Ice-cold 13% TCA containing 10 mM NaPPi (200 µl) are added and the mixture incubated on ice for 30 minutes. The precipitated cDNA is removed by filtration using presoaked glass filters [TCA, NaPPi]. The precipitate is then washed with 1N HCl, 10 mM NaPPi.
The filter discs are then counted in a scintillation counter.
Under these conditions [dGTP] and poly r(C)·oligo d(G)₁₂₋₁₈ each are approximately equal to the appropriate Km value. […] Calculated IC₅₀ values for the lead compounds of this invention were approximately 94nM and (more than or equal to) 300 µM for L-697,914 and L-697,913, respectively. […]

`CCc1cc(NCc2nc3ccccc3o2)c(=O)[nH]c1CO` [L-697,914, 3-[(benzoxazol-2-yl)methylamino]-5-ethyl-6-hydroxymethylpyridin-2(1H)-one] was tested, and the pIC50 was ~7.03.

`Cc1[nH]c(=O)c(NCc2nc3ccccc3o2)cc1C(C)O` [L-697,913, 3-[(benzoxazol-2-yl)methylamino]-5-(1-hydroxyethyl)-6-methylpyridin-2(1H)-one] was tested, and the pIC50 was ≤ 3.52.
